Test results reported in patent US11584765B2 (priority 2017, dated 2023).

Tested on: C57BL/6 mice
Test: animal or person
Format: in vivo
Settings: Mus musculus, sc, 0.5 h, s.c. administration, 30 min, 55° C. water, read-out: ED50 (mg/kg) at 30 min on C57BL/6 mice in Warm-water Tail-flick Test

| Structure (SMILES) | ED50 [mg/kg] |
| --- | --- |
| CCOCC1(CCC2CC2)CCN(Cc2ccc(C)nc2)C1 (stereo not shown) [Compound 427, 5-((3-(2-cyclopropylethyl)-3-(ethoxy-methyl)pyrrolidin-1-yl)methyl)-2-methylpyridine] | < 10 |
| CCOC[C@@]1(CCc2cccs2)CCN(Cc2c(C)cc(C)nc2C)C1 [Compound 416, (S)-3-((3-(ethoxymethyl)-3-(2-(thiophen-2-yl)ethyl)pyrrolidin-1-yl)methyl)-2,4,6-trimethylpyridine] | < 10 |
| CCOC[C@@]1(CCc2ccccc2)CCN(Cc2ccc(NC(C)=O)cc2)C1 [Compound 204, (S)-N-(4-((3-(ethoxymethyl)-3-phenethylpyrrolidin-1-yl)methyl)phenyl)acetamide] | > 10 |
| CC(=O)Nc1ccc(CN2CCC(CCc3ccccc3)(COc3ccccn3)CC2)cc1 [Compound 123, N-(4-((4-phenethyl-4-((pyridin-2-yloxy)methyl)piperidin-1-yl)methyl)phenyl)acetamide] | > 10 |
| c1ccc(CCC2(C3CCCO3)CCN(CC3CCCO3)C2)cc1 (stereo not shown) [Compound 229, 3-phenethyl-3-(tetrahydrofuran-2-yl)-1-((tetrahydrofuran-2-yl)methyl)pyrrolidine] | > 10 |
| C=CCN1CCC(CCc2ccccc2)(COCC)CC1 [Compound 80, 1-allyl-4-(ethoxymethyl)-4-phenethylpiperidine] | > 10 |
| CCOC[C@@]1(CCc2cccs2)CCN(Cc2cccnc2C)C1 [Compound 428, (S)-3-((3-(ethoxymethyl)-3-(2-(thiophen-2-yl)ethyl)pyrrolidin-1-yl)methyl)-2-methylpyridine] | < 10 |
| CCOCC1(CCc2ccccc2)CCN(Cc2ccc(NC(C)=O)s2)CC1.Cl [Compound 86, N-(5-((4-(ethoxymethyl)-4-phenethylpiperidin-1-yl)methyl)thiophen-2-yl)acetamide HCl] | > 10 |
| Cc1ccc(N(C)N2CCC(CCc3ccccc3)(c3ccccn3)CC2)c(C)n1 [Compound 339, N,2,6-trimethyl-N-(4-phenethyl-4-(pyridin-2-yl)piperidin-1-yl)pyridin-3-amine] | > 10 |
| c1ccc(C2(CCc3cccs3)CCN(Cc3cccnc3)C2)nc1 (stereo not shown) [Compound 390, 2-(1-(pyridin-3-ylmethyl)-3-(2-(thiophen-2-yl)ethyl)pyrrolidin-3-yl)pyridine] | > 10 |
| CC(=O)Nc1ccc(CN2CCC(CCc3ccccc3)(c3nnc(C)o3)CC2)cc1 [Compound 12, N-(4-((4-(5-methyl-1,3,4-oxadiazol-2-yl)-4-phenethylpiperidin-1-yl)methyl)phenyl)acetamide] | > 10 |
| CC(=O)NCC1(CCc2ccccc2)CCN(Cc2ccc(NC(C)=O)cc2)CC1 [Compound 67, N-((1-(4-acetamidobenzyl)-4-phenethylpiperidin-4-yl)methyl)acetamide] | > 10 |
| CCOC[C@@]1(CCc2cc3c(s2)CCC3)CCN(C(C)(C)c2ccc(C)nc2)C1.Cl [Compound 362, (S)-5-(2-(3-(2-(5,6-dihydro-4H-cyclopenta[b]thiophen-2-yl)ethyl)-3-(ethoxy-methyl)pyrrolidin-1-yl)propan-2-yl)-2-methylpyridine HCl] | < 10 |
| CCOCC1(CCc2ccccc2)CCN(Cc2ccc(-c3nnc(N)o3)cc2)CC1 [Compound 187, 5-(4-((4-(ethoxymethyl)-4-phenethylpiperidin-1-yl)methyl)phenyl)-1,3,4-oxadiazol-2-amine] | > 10 |
| CCOCC1(CCc2ccsc2)CCN(Cc2cnc(C)s2)CC1 [Compound 255, 5-((4-(ethoxymethyl)-4-(2-(thiophen-3-yl)ethyl)piperidin-1-yl)methyl)-2-methylthiazole] | > 10 |
| CCOCC1(COCc2ccccc2)CCN(Cc2ccc(NC(C)=O)cc2)CC1.Cl [Compound 132, N-(4-((4-(benzyloxymethyl)-4-(ethoxymethyl)piperidin-1-yl)methyl)phenyl)acetamide HCl] | > 10 |

| Structure (SMILES) | ED50 [mg/kg] |
| --- | --- |
| Cc1nc(CN2CCC(CCc3ccccc3)(C3CCCCO3)C2)cs1 (stereo not shown) [Compound 211, 2-methyl-4-((3-phenethyl-3-(tetrahydro-2H-pyran-2-yl)pyrrolidin-1-yl)methyl)thiazole] | > 10 |
| CC(=O)Nc1ccc(CN2CCC(Cc3ccccc3)(c3ccccn3)CC2)cc1 [Compound 14, N-(4-((4-benzyl-4-(pyridin-2-yl)piperidin-1-yl)methyl)phenyl)acetamide] | > 10 |
| CCOC(=O)C1(CCc2ccccc2)CCCN(Cc2ccc(NC(C)=O)cc2)CC1 (stereo not shown) [Compound 133, ethyl 1-(4-acetamidobenzyl)-4-phenethylazepane-4-carboxylate] | > 10 |
| CCOC(C)[C@@]1(CCc2cccs2)CCN(C(C)(C)c2ccc(C)nc2)C1 (single isomer, unassigned) [Compound 425, 5-(2-((S)-3-((S or R)-1-ethoxyethyl)-3-(2-(thiophen-2-yl)ethyl)pyrrolidin-1-yl)propan-2-yl)-2-methylpyridine] | < 10 |
| CCOCC1(CCc2ccccc2)CCN(C(C)c2ccc(C)nc2C)C1 (stereo not shown) [Compound 305, 3-(1-(3-(ethoxymethyl)-3-phenethylpyrrolidin-1-yl)ethyl)-2,6-dimethylpyridine] | < 10 |
| O=C(Nc1ccc(CN2CCC(CCc3ccccc3)(c3ccccn3)CC2)cc1)c1ccccc1 [Compound 24, N-(4-((4-phenethyl-4-(pyridin-2-yl)piperidin-1-yl)methyl)phenyl)benz-amide] | > 10 |
| CC(=O)Nc1ccc(CN2CCC(CCc3ccccc3)(c3cccs3)CC2)cc1 [Compound 2] | > 10 |
| CCOCC1(CCc2csc(C)c2)CCN(Cc2cnn(C)c2)CC1 [Compound 279, 4-(ethoxymethyl)-1-((1-methyl-1H-pyrazol-4-yl)methyl)-4-(2-(5-methylthiophen-3-yl)ethyl)piperidine] | > 10 |
| CCOCC1(CCc2ccccc2)CCN(Cc2ccc(CC(N)=O)cc2)CC1 [Compound 161, 2-(4-((4-(ethoxymethyl)-4-phenethylpiperidin-1-yl)methyl)phenyl)acetamide] | > 10 |
| CC(=O)Nc1ccc(CN2CCC(CCc3ccccc3)(c3cccc(F)n3)CC2)cc1 [Compound 37, N-(4-((4-(6-fluoropyridin-2-yl)-4-phenethylpiperidin-1-yl)methyl)phenyl)acetamide] | > 10 |
| CCOCC1(CCc2ccccc2)CCN(Cc2ccc(-c3ncc[nH]3)cc2)CC1 [Compound 140, 1-(4-(1H-imidazol-2-yl)benzyl)-4-(ethoxymethyl)-4-phenethylpiperidine] | > 10 |
| CC(=O)Nc1ccc(CN2CCC(CCc3ccccc3)(COC3CCCC3)CC2)cc1 [Compound 113, N-(4-((4-(cyclopentyloxy-methyl)-4-phenethylpiperidin-1-yl)methyl)phenyl)acetamide] | > 10 |
| CCOC[C@@]1(CCc2cscc2C)CCN(Cc2ccc(C)nc2C)C1 [Compound 331, (S)-3-((3-(ethoxymethyl)-3-(2-(4-methylthiophen-3-yl)ethyl)pyrrolidin-1-yl)methyl)-2,6-dimethylpyridine] | < 10 |
| CC(=O)Nc1ccc(NN2CCC(CCc3ccccc3)(c3ccccn3)CC2)cc1 [Compound 31, N-(4-(4-phenethyl-4-(pyridin-2-yl)piperidin-1-ylamino)phenyl)acetamide] | > 10 |
| COC1(CCc2ccccc2)CCN(Cc2ccc(NC(C)=O)cc2)CC1 [Compound 75, N-(4-((4-methoxy-4-phenethylpiperidin-1-yl)methyl)phenyl)acetamide] | > 10 |
